Results as given in ChEMBL document CHEMBL1201862, “PubChem BioAssay data set” (2004).
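Exposure lasted 48 hours, with cells grown in 96-well plates and compounds tested at five concentrations. GI50 = concentration required for 50% inhibition of growth.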 Active and inactive are the calls of the source. No stated cut-off is given here; in the data, active = GI50 up to about 1.1 µM and inactive = higher.

Experiments:
Assay in all cases: DTP human tumour cell line panel, 48 h
OVCAR-4 = tested on: OVCAR-4
DLD-1 = tested on: DLD-1
HT-29 = tested on: HT-29
M14 = tested on: M14
UACC-257 = tested on: UACC-257
OVCAR-8 = tested on: OVCAR-8
SF-268 = tested on: SF-268
KM12 = tested on: KM12
HL-60 = tested on: HL-60
NCI-H226 = tested on: NCI-H226
NCI-H23 = tested on: NCI-H23
786-0 = tested on: 786-0
NCI-H460 = tested on: NCI-H460
SK-OV-3 = tested on: SK-OV-3
OVCAR-5 = tested on: OVCAR-5
EKVX = tested on: EKVX
A498 = tested on: A498
T47D = tested on: T47D
Hs-578T = tested on: Hs-578T
MCF7 = tested on: MCF7

Measured: GI50

Sc1nnc(-c2ccccc2)n1/N=C\c1ccc(-c2ccc(Cl)cc2)o1
inactive: OVCAR-4 > 100 µM | DLD-1 > 100 µM | HT-29 > 100 µM | M14 > 100 µM | UACC-257 > 100 µM | OVCAR-8 > 100 µM | SF-268 > 100 µM | KM12 > 100 µM | HL-60 > 100 µM | NCI-H226 > 100 µM | NCI-H23 > 100 µM | 786-0 > 100 µM | NCI-H460 > 100 µM | SK-OV-3 > 100 µM | OVCAR-5 > 100 µM

NC(=O)/N=C1\NC(Cc2ccccc2)C(=O)N1Cc1ccccc1 (stereo unspecified)
inactive: OVCAR-4 > 100 µM | DLD-1 > 100 µM | HT-29 > 100 µM | M14 > 100 µM | EKVX > 100 µM | UACC-257 > 100 µM | OVCAR-8 > 100 µM | SF-268 > 100 µM | KM12 > 100 µM | HL-60 > 100 µM | NCI-H226 > 100 µM | NCI-H23 > 100 µM | 786-0 > 100 µM | NCI-H460 > 100 µM | SK-OV-3 > 100 µM | OVCAR-5 > 100 µM

CCCCCCCCCCCCCCCCc1c(C(=O)OC)[nH]c(=S)[nH]c1=O
inactive: OVCAR-4 > 50 µM | DLD-1 > 50 µM | A498 > 50 µM | HT-29 > 50 µM | M14 > 50 µM | EKVX > 50 µM | UACC-257 > 50 µM | OVCAR-8 > 50 µM | SF-268 > 50 µM | KM12 > 50 µM | HL-60 > 50 µM | NCI-H23 > 50 µM | 786-0 > 50 µM | NCI-H460 > 50 µM | SK-OV-3 > 50 µM | OVCAR-5 > 50 µM

CN(C)CCC(CCN(C)C)=NO
inactive: OVCAR-4 > 100 µM | DLD-1 > 100 µM | A498 > 100 µM | HT-29 > 100 µM | M14 > 100 µM | EKVX > 100 µM | UACC-257 > 100 µM | OVCAR-8 > 100 µM | SF-268 > 100 µM | KM12 > 100 µM | HL-60 > 100 µM | NCI-H23 > 100 µM | 786-0 > 100 µM | NCI-H460 > 100 µM | SK-OV-3 > 100 µM

COc1cc(-c2cc(=O)c3cc(C)c(C)c(C(=O)O)c3o2)cc(OC)c1OC
inactive: OVCAR-4 > 100 µM | DLD-1 > 100 µM | A498 > 100 µM | HT-29 > 100 µM | M14 > 100 µM | EKVX > 100 µM | UACC-257 > 100 µM | OVCAR-8 > 100 µM | SF-268 > 100 µM | KM12 > 100 µM | NCI-H23 > 100 µM | 786-0 > 100 µM | NCI-H460 > 100 µM | SK-OV-3 > 100 µM | OVCAR-5 > 100 µM

S=C1OC2CCCC[C@H]2O1 (stereo partly specified)
inactive: OVCAR-4 > 100 µM | DLD-1 > 100 µM | HT-29 > 100 µM | M14 > 100 µM | EKVX > 100 µM | UACC-257 > 100 µM | OVCAR-8 > 100 µM | SF-268 > 100 µM | KM12 > 100 µM | HL-60 > 100 µM | NCI-H226 > 100 µM | NCI-H23 > 100 µM | 786-0 > 100 µM | NCI-H460 > 100 µM | SK-OV-3 > 100 µM | OVCAR-5 > 100 µM

Cc1c2ncccc2c(C)c2c1[nH]c1ccccc12
inactive: OVCAR-4 18 µM | DLD-1 10.1 µM | A498 12.5 µM | HT-29 11.3 µM | M14 17.6 µM | EKVX 16 µM | UACC-257 16.6 µM | OVCAR-8 10.5 µM | SF-268 13.8 µM | KM12 10.3 µM | NCI-H226 12.7 µM | NCI-H23 11.1 µM | 786-0 9.38 µM | NCI-H460 5.18 µM | SK-OV-3 17.4 µM | OVCAR-5 14.1 µM

CCO[C@@]12CCC3CC4CC[C@@](OCC)(O1)C4C32 (stereo partly specified)
inactive: T47D > 100 µM | Hs-578T > 100 µM | OVCAR-4 > 100 µM | A498 > 100 µM | HT-29 > 100 µM | M14 > 100 µM | EKVX > 100 µM | UACC-257 > 100 µM | OVCAR-8 > 100 µM | SF-268 > 100 µM | KM12 > 100 µM | HL-60 > 100 µM | MCF7 > 100 µM | NCI-H226 > 100 µM | NCI-H23 > 100 µM | 786-0 > 100 µM | NCI-H460 > 100 µM | SK-OV-3 > 100 µM | OVCAR-5 > 100 µM

CCOC(=O)C(Cc1cn(S(=O)(=O)c2ccccc2)c2ccccc12)(NC(C)=O)C(=O)OCC
inactive: OVCAR-4 33.3 µM | DLD-1 40.1 µM | HT-29 58.5 µM | M14 32.1 µM | UACC-257 24.5 µM | OVCAR-8 33 µM | SF-268 40 µM | KM12 29.4 µM | HL-60 16.5 µM | NCI-H226 21.3 µM | NCI-H23 26.3 µM | 786-0 72.8 µM | NCI-H460 32.7 µM | OVCAR-5 > 100 µM

C=C(C)CC(C(=O)O)c1ccc(C)cc1 (stereo unspecified)
inactive: OVCAR-4 > 100 µM | DLD-1 > 100 µM | A498 > 100 µM | HT-29 > 100 µM | EKVX > 100 µM | UACC-257 > 100 µM | OVCAR-8 > 100 µM | SF-268 > 100 µM | KM12 > 100 µM | NCI-H23 > 100 µM | 786-0 > 100 µM | NCI-H460 > 100 µM | OVCAR-5 > 100 µM

CC1C(c2ccccc2)=CCON1c1ccccc1 (stereo unspecified)
inactive: OVCAR-4 > 100 µM | DLD-1 > 100 µM | HT-29 > 100 µM | M14 > 100 µM | EKVX > 100 µM | UACC-257 > 100 µM | OVCAR-8 > 100 µM | SF-268 > 100 µM | KM12 > 100 µM | HL-60 > 100 µM | NCI-H226 > 100 µM | NCI-H23 > 100 µM | 786-0 > 100 µM | NCI-H460 > 100 µM | SK-OV-3 > 100 µM | OVCAR-5 > 100 µM

O=C1/C(=C/c2ccccc2)N=C(c2ccccc2)N1n1c(-c2ccccc2)nc2ccccc2c1=O
inactive: T47D > 100 µM | Hs-578T 35.2 µM | OVCAR-4 60 µM | A498 92 µM | HT-29 70.5 µM | M14 > 100 µM | EKVX 48.6 µM | UACC-257 > 100 µM | OVCAR-8 > 100 µM | SF-268 64.6 µM | KM12 61.7 µM | HL-60 33.3 µM | MCF7 34 µM | NCI-H226 64 µM | NCI-H23 56.1 µM | 786-0 > 100 µM | NCI-H460 58.9 µM | SK-OV-3 > 100 µM | OVCAR-5 > 100 µM

O=C(O)c1ccccc1NS(=O)(=O)c1ccc(Cl)cc1
inactive: OVCAR-4 > 100 µM | DLD-1 > 100 µM | HT-29 > 100 µM | M14 > 100 µM | EKVX > 100 µM | UACC-257 > 100 µM | OVCAR-8 > 100 µM | SF-268 > 100 µM | NCI-H226 > 100 µM | NCI-H23 > 100 µM | 786-0 > 100 µM | NCI-H460 > 100 µM | SK-OV-3 > 100 µM | OVCAR-5 > 100 µM

CC(C)(C)OC(=O)NC(CSCc1ccc(C(=O)c2ccccc2)cc1)C(=O)N1CCN(CCCCN2c3ccccc3Sc3cc(N=[N+]=[N-])ccc32)CC1 (stereo unspecified)
inactive: T47D > 100 µM | Hs-578T > 100 µM | OVCAR-4 > 100 µM | A498 > 100 µM | HT-29 > 100 µM | M14 > 100 µM | EKVX > 100 µM | UACC-257 > 100 µM | OVCAR-8 > 100 µM | SF-268 > 100 µM | KM12 > 100 µM | HL-60 > 100 µM | MCF7 > 100 µM | NCI-H226 > 100 µM | NCI-H23 > 100 µM | 786-0 > 100 µM | NCI-H460 > 100 µM | SK-OV-3 > 100 µM | OVCAR-5 > 100 µM

O=C1c2c(Br)sc(Br)c2C(NC(=O)C(F)(F)F)C1O (stereo unspecified)
inactive: T47D 24.4 µM | Hs-578T 32.8 µM | OVCAR-4 19.9 µM | A498 > 100 µM | HT-29 24.7 µM | M14 20.6 µM | EKVX 19.5 µM | UACC-257 19.3 µM | OVCAR-8 20.3 µM | SF-268 34 µM | KM12 30.1 µM | HL-60 8.39 µM | MCF7 22.8 µM | NCI-H226 29.5 µM | NCI-H23 22.6 µM | 786-0 19.3 µM | NCI-H460 20.4 µM | SK-OV-3 19.3 µM | OVCAR-5 19.7 µM

CCCC(=O)c1c(NOC2OC(COC(C)=O)C(OC(C)=O)C(OC(C)=O)C2OC(C)=O)nc(OC)n(C)c1=O (stereo unspecified)
inactive: OVCAR-4 > 100 µM | DLD-1 > 100 µM | HT-29 > 100 µM | M14 > 100 µM | EKVX > 100 µM | OVCAR-8 > 100 µM | SF-268 > 100 µM | KM12 > 100 µM | NCI-H226 > 100 µM | NCI-H23 > 100 µM | 786-0 > 100 µM | NCI-H460 > 100 µM | OVCAR-5 > 100 µM

CN(C)CC(=O)N1CCc2c([nH]c3ccccc23)C1c1cccnc1 (stereo unspecified)
inactive: OVCAR-4 > 100 µM | DLD-1 > 100 µM | A498 > 100 µM | HT-29 > 100 µM | M14 > 100 µM | EKVX > 100 µM | UACC-257 > 100 µM | OVCAR-8 > 100 µM | SF-268 > 100 µM | KM12 > 100 µM | HL-60 > 100 µM | NCI-H23 > 100 µM | 786-0 > 100 µM | NCI-H460 > 100 µM | SK-OV-3 > 100 µM | OVCAR-5 > 100 µM
